One may read the IC50 as the concentration that gives 50% inhibition. Read a high IC50 as a need for much substance.

Among the data in patent publication US20150253330A1, “PRE-SELECTION OF SUBJECTS FOR THERAPEUTIC TREATMENT WITH AN HSP90 INHIBITOR BASED ON HYPOXIC STATUS” (Synta Pharmaceuticals Corp., priority 2012, published 2015) are IC50 values, retold here.

The subject of assay [1] is MKN45 (wt-p53, wt-KRAS, MET amplified). Put plainly: 72 hr viability by CTG, gastric cancer cells. In kind it is cell-based. Particulars: Homo sapiens, MKN-45, viability by CTG (upper). The procedure:
(§1) Many of the oncoproteins associated with gastric cancer and Hsp90 client proteins including HER2, MET, RAS and the FGFR family. Ganetespib was evaluated for its effect on the growth of AGS (wt-p53 and mut-KRAS) and MKN45 (wt-p53, wt-KRAS, MET amplified) gastric cancer cells.

For assay [2], the system named is AGS (wt-p53 and mut-KRAS). Put plainly: 72 hr viability by CTG, gastric cancer cells. In kind it is cell-based. Particulars: viability by CTG (upper). The procedure: as §1

For `CC(C)c1cc(-c2nnc(O)n2-c2ccc3c(ccn3C)c2)c(O)cc1O` [ganetespib], the results for the IC50 in assay [1] and in assay [2] were 0.5 nM and 1.5 nM, respectively.
